Source: ChEMBL document CHEMBL3588767, “Inhibitory activities of biflavonoids against amyloid-β peptide 42 cytotoxicity in PC-12 cells” (Bioorg Med Chem Lett, 2015)

Tests used:
[1] = Neuroprotective activity against 0.1 uM amyloid beta 42-induced toxicity in rat PC12 cells assessed as cell viability at 10 uM after 24 hrs by MTT assay; type: functional, PC-12
[2] = Neuroprotective activity against 0.1 uM amyloid beta 42-induced toxicity in rat PC12 cells assessed as cell viability at 50 uM after 24 hrs by MTT assay; type: functional, PC-12
[3] = Neuroprotective activity against 0.1 uM amyloid beta 42-induced toxicity in rat PC12 cells assessed as cell viability after 24 hrs by MTT assay; type: functional, cell-based; conditions: PC-12, 24 h

Row | Compound | Activity [1] [%] | Activity [2] [%] | EC50 [3] [µM]
1 | COc1ccc(-c2cc(=O)c3c(O)cc(O)c(-c4cc(-c5cc(=O)c6c(O)cc(O)cc6o5)ccc4O)c3o2)cc1 [PODOCARPUSFLAVONE A] | 49.3 | – | –
2 | COc1cc2oc(-c3ccc(O)cc3)cc(=O)c2c(O)c1Oc1ccc(-c2cc(=O)c3c(O)cc(O)cc3o2)cc1 | 65.7 | – | –
3 | COc1cc(O)c2c(=O)cc(-c3ccc(OC)c(-c4c(O)cc(O)c5c(=O)cc(-c6ccc(O)cc6)oc45)c3)oc2c1 [GINKGETIN] | 59.8 | – | –
4 | COc1ccc(-c2cc(=O)c3c(O)cc(OC)c(-c4cc(-c5cc(=O)c6c(O)cc(O)cc6o5)ccc4O)c3o2)cc1 [7'',4'''-dimethylamentoflavone] | 55.3 | – | –
5 | COc1ccc(-c2cc(=O)c3c(O)cc(O)c(-c4cc(-c5cc(=O)c6c(O)cc(OC)cc6o5)ccc4OC)c3o2)cc1 [SCIADOPITISIN] | 83.1 | 100 | 9.84
6 | COc1cc(O)c2c(=O)cc(-c3ccc(O)c(-c4c(OC)cc(O)c5c(=O)cc(-c6ccc(O)cc6)oc45)c3)oc2c1 | 52.6 | – | –
7 | COc1cc(O)c2c(=O)cc(-c3ccc(Oc4c(OC)cc5oc(-c6ccc(O)cc6)cc(=O)c5c4O)cc3)oc2c1 | 55.5 | – | –
8 | COc1ccc(-c2cc(=O)c3c(O)cc(OC)c(-c4c(OC)cc(O)c5c(=O)cc(-c6ccc(OC)cc6)oc45)c3o2)cc1 | 46.7 | – | –
9 | O=C(O[C@@H]1Cc2c(O)cc(O)cc2O[C@@H]1c1cc(O)c(O)c(O)c1)c1cc(O)c(O)c(O)c1 [EPIGALOCATECHIN GALLATE] | 49.5 | – | –
10 | COc1ccc(-c2cc(=O)c3c(O)cc(O)c(-c4cc(-c5cc(=O)c6c(O)cc(O)cc6o5)ccc4OC)c3o2)cc1 [ISOGINKGETIN] | 83.1 | – | 5.18
11 | O=c1cc(-c2ccc(O)c(-c3c(O)cc(O)c4c(=O)cc(-c5ccc(O)cc5)oc34)c2)oc2cc(O)cc(O)c12 [AMENTOFLAVONE] | 37.6 | – | –
12 | COc1ccc(-c2cc(=O)c3c(O)cc(O)c(-c4cc(-c5cc(=O)c6c(O)cc(OC)cc6o5)ccc4O)c3o2)cc1 [PODOCARPUSFLAVONE B] | 76.4 | – | 10.8
13 | COc1cc(O)c2c(=O)cc(-c3ccc(O)c(-c4c(O)cc(O)c5c(=O)cc(-c6ccc(O)cc6)oc45)c3)oc2c1 [SEQUOIAFLAVONE] | 39.3 | – | –
14 | O=c1cc(-c2ccc(O)cc2)oc2c(-c3c(O)cc(O)c4c(=O)cc(-c5ccc(O)cc5)oc34)c(O)cc(O)c12 [CUPRESSUFLAVONE] | 31.7 | – | –
15 | COc1ccc(-c2cc(=O)c3c(O)cc(OC)c(-c4cc(-c5cc(=O)c6c(O)cc(OC)cc6o5)ccc4OC)c3o2)cc1 | 49.9 | – | –
16 | COc1ccc(-c2cc(=O)c3c(O)cc(O)cc3o2)cc1-c1c(OC)cc(O)c2c(=O)cc(-c3ccc(O)cc3)oc12 | 56.5 | – | –
17 | COc1cc(O)c2c(=O)cc(-c3ccc(OC)c(-c4c(OC)cc(O)c5c(=O)cc(-c6ccc(O)cc6)oc45)c3)oc2c1 | 65.3 | – | –
18 | COc1cc2oc(-c3ccc(O)cc3)cc(=O)c2c(O)c1-c1cc(-c2cc(=O)c3c(O)cc(O)cc3o2)ccc1O | 38.5 | – | –
19 | COc1ccc(-c2cc(=O)c3c(O)cc(OC)c(-c4cc(-c5cc(=O)c6c(O)cc(OC)cc6o5)ccc4O)c3o2)cc1 [HEVEAFLAVONE] | 45.1 | – | –
20 | COc1ccc(-c2cc(=O)c3c(O)cc(OC)c(-c4cc(-c5cc(=O)c6c(O)cc(O)cc6o5)ccc4OC)c3o2)cc1 [KAYAFLAVONE] | 80.5 | 100 | 5.29
21 | O=c1cc(-c2ccc(Oc3c(O)cc4oc(-c5ccc(O)cc5)cc(=O)c4c3O)cc2)oc2cc(O)cc(O)c12 [HINOKIFLAVONE] | 38.7 | – | –
22 | COc1ccc(-c2cc(=O)c3c(O)cc(O)cc3o2)cc1-c1c(O)cc(O)c2c(=O)cc(-c3ccc(O)cc3)oc12 [BILOBETIN] | 44.7 | – | –
23 | O=c1cc(-c2ccc(O)cc2)oc2cc(O)cc(O)c12 [APIGENIN] | 41 | – | –
24 | COc1cc(O)c2c(=O)cc(-c3ccc(O)cc3)oc2c1-c1cc(-c2cc(=O)c3c(O)cc(O)cc3o2)ccc1O [SOTETSUFLAVONE] | 34.2 | – | –
